The source of these data is patent US8158656B2, “2-indolinone derivatives as multi-target protein kinase inhibitors and histone deacetylase inhibitors” (Shenzhen Chipscreen Biosciences Ltd., priority 2008, dated 2012).

For one assay, the system named is A549. The assay is described as follows: Tumor cell proliferation (MTS), A549. The class given is cell-based. Particulars: Homo sapiens, A549, 72 hours. The protocol:
(§1) Measurement of in vivo cell proliferation:
(§2) Tumor cells were trypsinized and plated into 96-well plates at 3,000 per well and incubated in complete medium with 10% FBS for 24 hours. Compounds were added over a final concentration range of 100 μmol/L to 100 nmol/L in 0.1% DMSO and incubated for 72 hours in complete medium. The effects on proliferation were determined by addition of MTS reagent (Promega) according to the instruction, incubation for 2 hours at 37° C. in CO2 incubator, and record the absorbance at 490 nm using an ELISA plate reader.

The test system of another assay is HUVEC cells. Description: VEGF ligand-dependent cell proliferation. The class given is cell-based. Particulars: Homo sapiens, VEGF 165 50 ng/ml, 72 hours, MTS. The protocol: VEGF dependent cell proliferation:
HUVEC cells were plated into 96-well plates at 6,000 per well and incubated with serum-free medium for 2 hours. Compounds and VEGF 165 (50 ng/ml) were added and incubated for 72 hours in serum-free medium. The effects on proliferation were determined by addition of MTS reagent (Promega) according to the instruction, incubation for 2 hours at 37° C. in CO2 incubator, and record the absorbance at 490 nm using an ELISA plate reader.

In the next assay the test system is HeLa. The assay is described as follows: Tumor cell proliferation (MTS), HeLa. In kind it is cell-based. The note with it: Homo sapiens, 72 hours. The protocol: as §1, §2
The next assay concerns MCF7. Description: Tumor cell proliferation (MTS), MCF7. In kind it is cell-based. Particulars: Homo sapiens, MCF7, 72 hours. The protocol: as §1, §2
In the next assay the test system is total HDAC enzyme. Description: Total HDAC enzyme activity, HDAC Fluorimetric Assay (HeLa extract). The class given is biochemical, human. The protocol: Measurement of in vitro inhibition of total HDAC enzyme activity:
The in vitro inhibition of total HDAC enzyme was determined by HDAC Fluorimetric Assay/Drug Discovery Kit (BIOMOL) according to manufacture's instruction. • 1. Add Assay buffer, diluted trichostatin A or test inhibitor to appropriate wells of the microtiter plate. Following table lists examples of various assay types and the additions required for each test.
• 2. Add diluted HeLa extract or other HDAC sample to all wells except those that are to be “No Enzyme Controls” (Blank). • 3. Allow diluted Fluor de Lys™ Substrate and the samples in the microtiter plate to equilibrate to assay temperature (25° C.). • 4. Initiate HDAC reactions by adding diluted substrate (25 μl) to each well and mixing thoroughly. • 5. Allow HDAC reactions to proceed for desired length of time and then stop them by addition of Fluor de Lys™ Developer (50 μl). Incubate plate at room temperature (25° C.) for 10-15 min. • 6. Read samples in a microtiter-plate reading fluorimeter capable of excitation at a wavelength in the range 350-380 nm and detection of emitted light in the range 440-460 nm. Measurement of in vivo inhibition of HDAC subtype activity: […]

The test system of another assay is HCT-8. Description: Tumor cell proliferation (MTS), HCT-8. The class given is cell-based. The note with it: Homo sapiens, HCT-8, 72 hours. The protocol:
as §1, §2

In the next assay the test system is Bel-7402. The assay is described as follows: Tumor cell proliferation (MTS), Bel-7402. The class given is cell-based. The note with it: Homo sapiens, Bel-7402, 72 hours. The protocol: as §1, §2
The test system of a further assay is Jurkat. The assay is described as follows: Tumor cell proliferation (MTS), Jurkat. Particulars: Homo sapiens, 72 hours. The class given is cell-based. The protocol:
as §1, §2

For a further assay, the system named is U937. The assay is described as follows: Tumor cell proliferation (MTS), U937. In kind it is cell-based. Particulars: Homo sapiens, U-937, U937, 72 hours. As to the method: as §1, §2
A further assay concerns MDA-MB-231. The assay is described as follows: Tumor cell proliferation (MTS), MDA-MB-231. The class given is cell-based. Particulars: Homo sapiens, MDA-MB-231, 72 hours. The protocol: as §1, §2
The test system of a further assay is Ramos. Description: Tumor cell proliferation (MTS), Ramos. In kind it is cell-based. The note with it: Homo sapiens, 72 hours. As to the method:
as §1, §2

As usually defined, the GI50 is the concentration at which growth is held to half of that of the control. Lower therefore signals more potent growth inhibition. On to `Cc1[nH]c(/C=C2\C(=O)Nc3ccc(F)cc32)c(C)c1C(=O)NCCCCNc1ccc(C(=O)Nc2ccc(F)cc2N)cn1` [Example 19, (Z)-N-(2-amino-4-fluorophenyl)-6-(4-(2-((5-fluoro-2-oxoindolin-3-ylidene)-methyl)-3,5-dimethyl-1H-pyrrole-4-carboxamido)butylamino)nicotinamide], for which the GI50 with A549 was above 60 µM; with HUVEC cells, 81 nM; in the assay with HeLa, above 60 µM; in the assay on MCF7 it was above 60 µM; in the assay on HCT-8 it was above 60 µM; in the assay on Bel-7402 it was above 60 µM. The GI50 in the assay with Jurkat, with U937, with MDA-MB-231 and in the assay on Ramos was above 60 µM each time. Besides, the “% inhibition of total HDAC enzyme activity at 30 μM” value (“% inhibition” below) with total HDAC enzyme came out at 7.30%.

Regarding `Cc1[nH]c(/C=N/N=C2\C(=O)Nc3ccc(F)cc32)c(C)c1C(=O)NCCCNc1ccc(C(=O)Nc2ccc(F)cc2N)cn1` [Example 17, N-(2-amino-4-fluorophenyl)-6-(3-(2-(((5-fluoro-2-oxoindolin-3-ylidene)-hydrazono)methyl)-3,5-dimethyl-1H-pyrrole-4-carboxamido)propylamino)nicotinamide], the GI50 is above 60 µM with A549; 460 nM in the assay with HUVEC cells; above 60 µM in the assay on HeLa; above 60 µM in the assay with MCF7; above 60 µM in the assay on HCT-8; above 60 µM in the assay on Bel-7402. Besides, the GI50 with Jurkat, with U937, with MDA-MB-231 and with Ramos was above 60 µM each time. In addition, the “% inhibition” value in the assay with total HDAC enzyme stood at 4.00%.

In the case of `Cc1[nH]c(/C=N/N=C2\C(=O)Nc3ccc(F)cc32)c(C)c1C(=O)NCCNc1ccc(C(=O)Nc2ccccc2N)cn1` [Example 4, N-(2-aminophenyl)-6-(2-(2-(((5-fluoro-2-oxoindolin-3-ylidene)hydrazono)-methyl)-3,5-dimethyl-1H-pyrrole-4-carboxamido)ethylamino)nicotinamide], the GI50 is above 60 µM in the assay with A549; 1 nM in the assay on HUVEC cells; above 60 µM with HeLa; above 60 µM in the assay on MCF7; above 60 µM with HCT-8; above 60 µM in the assay on Bel-7402. For the same compound, the GI50 with Jurkat, in the assay with U937, in the assay on MDA-MB-231 and in the assay on Ramos was above 60 µM throughout. Further, in the assay with total HDAC enzyme, the “% inhibition” value amounted to 6.90%.
